From article PMC6222544, “Fragment-Based Lead Generation of 5-Phenyl-1H-pyrazole-3-carboxamide Derivatives as Leads for Potent Factor Xia Inhibitors” (Molecules : A Journal of Synthetic Chemistry and Natural …, 2018)
Read-outs that look alike come from different tables or passages of the source.

How the values were obtained:
human FXIa = target: T1, human FXIa (Homo sapiens, UniProt P03951); test: Inhibition of FXIa in vitro (chromogenic substrate assay); type: biochemical
T1 construct: purchased Haematologic Technologies, Essex Junction, VT, USA
Procedure: The negative controlwas composed of the same mixed solutions except replacing test compound with DMSO. […] The IC50 was calculated by IBM SPSS Statistics 22.0 (IBM Inc., North Castle, NY, USA) and the Probit function in it. IC50 values were converted to Ki values by the followingrelationship:Ki = IC50/(1 + [S]/Km)

[1] = human FXIa, chromogenic substrate BIOPHEN CS-21(66), 37 °C, pH 7.4, Ki = IC50/(1 + [S]/Km), read-out: Ki
[2] = Table 1 values, read-out: FXIa inhibitory potency (Ki)

T1 sequence (P03951 388-625 limits assumed): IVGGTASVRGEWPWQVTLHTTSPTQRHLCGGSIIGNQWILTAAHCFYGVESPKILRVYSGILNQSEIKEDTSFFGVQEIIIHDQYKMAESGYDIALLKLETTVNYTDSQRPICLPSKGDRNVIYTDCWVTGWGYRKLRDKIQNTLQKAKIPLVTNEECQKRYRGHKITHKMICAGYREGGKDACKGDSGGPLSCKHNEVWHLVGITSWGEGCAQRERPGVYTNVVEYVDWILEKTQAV
T1 sequence (P03951 19-387 partner limits assumed): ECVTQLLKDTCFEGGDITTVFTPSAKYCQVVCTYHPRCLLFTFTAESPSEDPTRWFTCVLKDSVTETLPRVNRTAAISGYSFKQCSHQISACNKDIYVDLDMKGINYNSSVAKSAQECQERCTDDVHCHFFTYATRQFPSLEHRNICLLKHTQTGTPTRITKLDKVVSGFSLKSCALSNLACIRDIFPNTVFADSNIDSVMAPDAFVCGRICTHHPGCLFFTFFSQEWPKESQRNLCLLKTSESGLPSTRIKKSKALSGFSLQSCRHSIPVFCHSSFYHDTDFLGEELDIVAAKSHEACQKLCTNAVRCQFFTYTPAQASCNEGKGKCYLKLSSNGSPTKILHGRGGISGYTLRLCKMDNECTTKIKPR

Ki (human FXIa; [1]) [µM]	melting point	Ki (human FXIa; [2]) [µM]	Compound
46.7	147 to 149 °C (dec.)		O=C(O)c1ccc(NC(=O)[C@H](Cc2ccccc2)NC(=O)c2cc(-c3cccc(Cl)c3)[nH]n2)cc1 [Compound 7a, (S)-4-(2-(5-(3-Chlorophenyl)-1H-pyrazole-3-carboxamido)-3-phenylpropanamido)benzoic acid]
> 84.5	137 to 139 °C (dec.)		O=C(O)c1ccc(NC(=O)[C@H](Cc2ccccc2)NC(=O)c2cc(-c3ccccc3)[nH]n2)cc1 [Compound 7b, (S)-4-(3-Phenyl-2-(5-phenyl-1H-pyrazole-3-carboxamido)propanamido)benzoic acid]
> 84.5	86 to 88 °C (dec.)		O=C(O)c1ccc(NC(=O)[C@H](Cc2ccccc2)NC(=O)c2cc(-c3ccccc3F)[nH]n2)cc1 [Compound 7c, (S)-4-(2-(5-(2-Fluorophenyl)-1H-pyrazole-3-carboxamido)-3-phenylpropanamido)benzoic acid]
> 84.5	92 to 94 °C (dec.)		O=C(O)c1ccc(NC(=O)[C@H](Cc2ccccc2)NC(=O)c2cc(-c3ccccc3Cl)[nH]n2)cc1 [Compound 7d, (S)-4-(2-(5-(2-Chlorophenyl)-1H-pyrazole-3-carboxamido)-3-phenylpropanamido)benzoic acid]
> 84.5	174 to 176 °C (dec.)		O=C(O)c1ccc(NC(=O)[C@H](Cc2ccccc2)NC(=O)c2cc(-c3ccc(Cl)cc3)[nH]n2)cc1 [Compound 7e, (S)-4-(2-(5-(4-Chlorophenyl)-1H-pyrazole-3-carboxamido)-3-phenylpropanamido)benzoic acid]
29.3	185 to 187 °C (dec.)		O=C(O)c1ccc(NC(=O)[C@H](Cc2ccccc2)NC(=O)c2cc(-c3cccc(Cl)c3F)[nH]n2)cc1 [Compound 7f, (S)-4-(2-(5-(3-Chloro-2-fluorophenyl)-1H-pyrazole-3-carboxamido)-3-phenylpropanamido)benzoic acid]
> 84.5	143 to 145 °C (dec.)		O=C(O)c1ccc(NC(=O)[C@H](Cc2ccccc2)NC(=O)c2cc(-c3ccc(Cl)cc3F)[nH]n2)cc1 [Compound 7g, (S)-4-(2-(5-(4-Chloro-2-fluorophenyl)-1H-pyrazole-3-carboxamido)-3-phenylpropanamido)benzoic acid]
> 84.5	179 to 181 °C (dec.)		O=C(O)c1ccc(NC(=O)[C@H](Cc2ccccc2)NC(=O)c2cc(-c3cc(Cl)ccc3F)[nH]n2)cc1 [Compound 7h, (S)-4-(2-(5-(5-Chloro-2-fluorophenyl)-1H-pyrazole-3-carboxamido)-3-phenylpropanamido)benzoic acid]
> 84.5	203 to 205 °C (dec.)		O=C(O)c1ccc(NC(=O)[C@H](Cc2ccccc2)NC(=O)c2cc(-c3c(F)cccc3Cl)[nH]n2)cc1 [Compound 7i, (S)-4-(2-(5-(2-Chloro-6-fluorophenyl)-1H-pyrazole-3-carboxamido)-3-phenylpropanamido)benzoic acid]
> 84.5	205 to 207 °C (dec.)		O=C(O)c1ccc(NC(=O)[C@H](Cc2ccccc2)NC(=O)c2cc(-c3c(F)cccc3F)[nH]n2)cc1 [Compound 7j, (S)-4-(2-(5-(2,6-Difluorophenyl)-1H-pyrazole-3-carboxamido)-3-phenylpropanamido)benzoic acid]
28.9	129 to 131 °C (dec.)		O=C(O)c1ccc(NC(=O)[C@H](Cc2ccccc2)NC(=O)c2cc(-c3c(F)ccc(Cl)c3F)[nH]n2)cc1 [Compound 7k, (S)-4-(2-(5-(3-Chloro-2,6-difluorophenyl)-1H-pyrazole-3-carboxamido)-3-phenylpropanamido)benzoicacid]
> 84.5	123 to 125 °C (dec.)		O=C(O)c1ccc(NC(=O)[C@H](Cc2ccccc2)NC(=O)c2cc(-c3c(F)cc(Cl)cc3F)[nH]n2)cc1 [Compound 7l, (S)-4-(2-(5-(4-Chloro-2,6-difluorophenyl)-1H-pyrazole-3-carboxamido)-3-phenylpropanamido)benzoic acid]

Second part, the molecule before the results:

Compound	Ki (human FXIa; [1]) [µM]	melting point	Ki (human FXIa; [2]) [µM]
Cc1c(C(=O)N[C@@H](Cc2ccccc2)C(=O)Nc2ccc(C(=O)O)cc2)n[nH]c1-c1cccc(Cl)c1 [Compound 7m, (S)-4-(2-(5-(3-Chlorophenyl)-4-methyl-1H-pyrazole-3-carboxamido)-3-phenylpropanamido)benzoic acid]	37.1	164 to 166 °C (dec.)	
CCc1c(C(=O)N[C@@H](Cc2ccccc2)C(=O)Nc2ccc(C(=O)O)cc2)n[nH]c1-c1cccc(Cl)c1 [Compound 7n, (S)-4-(2-(5-(3-Chlorophenyl)-4-ethyl-1H-pyrazole-3-carboxamido)-3-phenylpropanamido)benzoic acid]	> 84.5	126 to 128 °C (dec.)	
O=C(O)c1cc2cc(NC(=O)[C@H](Cc3ccccc3)NC(=O)c3cc(-c4cccc(Cl)c4F)n[nH]3)ccc2[nH]1 [Compound 7o, (S)-5-(2-(3-(3-Chloro-2-fluorophenyl)-1H-pyrazole-5-carboxamido)-3-phenylpropanamido)-1H-indole-2-carboxylic acid]		172 to 174 °C (dec.)	1.97
O=C(O)c1cc2cc(NC(=O)[C@H](Cc3ccccc3)NC(=O)c3cc(-c4c(F)ccc(Cl)c4F)n[nH]3)ccc2[nH]1 [Compound 7p, (S)-5-(2-(3-(3-Chloro-2,6-difluorophenyl)-1H-pyrazole-5-carboxamido)-3-phenylpropanamido)-1H-indole-2-carboxylic acid]	8.4	164 to 166 °C (dec.)	
Cc1c(C(=O)N[C@@H](Cc2ccccc2)C(=O)Nc2ccc3[nH]c(C(=O)O)cc3c2)n[nH]c1-c1cccc(Cl)c1 [Compound 7q, (S)-5-(2-(3-(3-Cchlorophenyl)-4-methyl-1H-pyrazole-5-carboxamido)-3-phenylpropanamido)-1H-indole-2-carboxylic acid]	8.94	154 to 156 °C (dec.)	
O=C(O)c1cc2cc(NC(=O)[C@H](Cc3ccc(F)cc3)NC(=O)c3cc(-c4cccc(Cl)c4F)n[nH]3)ccc2[nH]1 [Compound 7s, (S)-5-(2-(3-(3-Chloro-2-fluorophenyl)-1H-pyrazole-5-carboxamido)-3-(4-fluorophenyl)propanamido)-1H-indole-2-carboxylic acid]		186 to 188 °C (dec.)	0.93
O=C(O)c1cc2cc(NC(=O)[C@H](Cc3cccc(F)c3)NC(=O)c3cc(-c4cccc(Cl)c4F)n[nH]3)ccc2[nH]1 [Compound 7t, (S)-5-(2-(3-(3-Chloro-2-fluorophenyl)-1H-pyrazole-5-carboxamido)-3-(3-fluorophenyl)propanamido)-1H-indole-2-carboxylic acid]		174 to 176 °C (dec.)	1.66
O=C(O)c1cc2cc(NC(=O)[C@H](Cc3ccncc3)NC(=O)c3cc(-c4cccc(Cl)c4F)n[nH]3)ccc2[nH]1 [Compound 7u, (S)-5-(2-(3-(3-Chloro-2-fluorophenyl)-1H-pyrazole-5-carboxamido)-3-(pyridin-4-yl)propanamido)-1H-indole-2-carboxylic acid]		199 to 201 °C (dec.)	13.3
O=C(O)c1cc2cc(NC(=O)[C@H](Cc3cccnc3)NC(=O)c3cc(-c4cccc(Cl)c4F)n[nH]3)ccc2[nH]1 [Compound 7v, (S)-5-(2-(3-(3-Chloro-2-fluorophenyl)-1H-pyrazole-5-carboxamido)-3-(pyridin-3-yl)propanamido)-1H-indole-2-carboxylic acid]		175 to 177 °C (dec.)	3.52
O=C(O)c1cc2cc(NC(=O)[C@H](Cc3ccccn3)NC(=O)c3cc(-c4cccc(Cl)c4F)n[nH]3)ccc2[nH]1 [Compound 7w, (S)-5-(2-(3-(3-Chloro-2-fluorophenyl)-1H-pyrazole-5-carboxamido)-3-(pyridin-2-yl)propanamido)-1H-indole-2-carboxylic acid]		192 to 194 °C (dec.)	8.99
CC(=O)N1CCN(C(=O)C[C@H](NC(=O)c2cc(-c3cccc(Cl)c3F)[nH]n2)C(=O)Nc2ccc3[nH]c(C(=O)O)cc3c2)CC1 [Compound 7x, (S)-5-(4-(4-Acetylpiperazin-1-yl)-2-(5-(3-chloro-2-fluorophenyl)-1H-pyrazole-3-carboxamido)-4-oxobutanamido)-1H-indole-2-carboxylic acid]			81.2
O=C(O)c1cc2cc(NC(=O)[C@H](CC(=O)N3CCOCC3)NC(=O)c3cc(-c4cccc(Cl)c4F)n[nH]3)ccc2[nH]1 [Compound 7y, (S)-5-(2-(3-(3-Chloro-2-fluorophenyl)-1H-pyrazole-5-carboxamido)-4-morpholino-4-oxobutanamido)-1H-indole-2-carboxylic acid]		175 to 177 °C (dec.)	64
Nc1ccc(C[C@H](NC(=O)c2cc(-c3cccc(Cl)c3F)[nH]n2)C(=O)Nc2ccc3[nH]c(C(=O)O)cc3c2)cc1 [Compound 7z, (S)-5-(3-(4-Aminophenyl)-2-(5-(3-chloro-2-fluorophenyl)-1H-pyrazole-3-carboxamido)propanamido)-1H-indole-2-carboxylic acid]	4.1	209 to 211 °C (dec.)	
CN1CCN(C(=O)Nc2ccc(C[C@H](NC(=O)c3cc(-c4cccc(Cl)c4F)[nH]n3)C(=O)Nc3ccc4[nH]c(C(=O)O)cc4c3)cc2)CC1 [Compound 7zb, (S)-5-(2-(5-(3-Chloro-2-fluorophenyl)-1H-pyrazole-3-carboxamido)-3-(4-(4-methylpiperazine-1-carboxamido)phenyl)propanamido)-1H-indole-2-carboxylic acid]	1.94	203 to 205 °C (dec.)	
